Reference: article PMC6331810, “Novel Coumarin-Containing Aminophosphonatesas Antitumor Agent: Synthesis, Cytotoxicity, DNA-Binding and Apoptosis Evaluation” (Molecules, 2015)

What was measured:
[1] = system: MGC-803 (human lung adenocarcinoma cell line); assay: MTT cytotoxicity assay, MGC-803; type: cell-based; details: 48 h, no irradiation, mean ± SD of three experiments
Experimental: (§1) Cell Lines. The following in vitro human cancer cell lines were used: HCT-116 (Human colorectal cells), human KB (human nasopharyngeal carcinoma cells), MGC-803 (human lung adenocarcinoma cell line), HUVEC (Human Umbilical Vein Endothelial Cells). The cell lines (HCT-116, KB, MGC-803 and HUVEC) were purchased from the Cell Resource Center of Shanghai Institutes for Biological Sciences, the Academy of Sciences of China.
(§2) Cell Culture. HCT-116, human KB, MGC-803 and HUVEC cells were cultured in Dulbecco Modified Eagle Medium (DMEM; HyClone, Los Angeles, CA, USA), containing 4.0 mM L-Glutamine and 4500 mg/L Glucose, supplemented with 10% (v/v) foetalbovine serum (FBS; HyClone). The cell culturemedia was supplemented with penicillin/streptomycin at 100 Units/mL as adherent monolayers. Cell cultures were kept in a humidified incubator with 5% CO2 at 37 °C. Stock solutions were prepared in dimethyl sulfoxide (DMSO) and further dilutions were made with fresh culture medium. The concentration of DMSO in the final culture medium was 1%, which had no effect on the cell viability.
(§3) MTT Assay. Chemosensitivity was assessed using 3-(4,5-dimethylthiazol-2-yl)-2,5-diphenyl tetrazolium bromide (MTT) assay. Briefly, exponentially growing HCT-116 (3000–4000 cells/well), human KB (2000–3000 cells/well) and MGC 803 (2000–3000 cells/well) were seeded into 96-well plates and treated with indicated concentrations of samples for 48 h, and then […] of MTT (10 mg/mL) was added. After incubation for 4 h at 37 °C, the purple formazan crystals (i.e., a reduced form of MTT) generated from viable cells were dissolved by adding 100 μL DMSO in each well. The plates were swirled gently for 10 min to dissolve the precipitate, and quantified by measuring the optical density (OD) of the plates at a wavelength of 490 nm on plate reader (TECAN infinite M1000). Each concentration was repeated in three wells and the same experimental conditions were provided for all compounds and MTT analysis was repeated three times for each cell line.

[2] = system: HCT-116 (Human colorectal cells); assay: MTT cytotoxicity assay, HCT-116; type: cell-based; details: for IC50: MTT, 48 h, no irradiation, mean ± SD of three experiments
Experimental: as §1, §2, §3

GelRed/CT-DNA = assay: GelRed-DNA competitive binding (fluorescence quenching); design: species or system calf; details: I0/I vs [Q]; [GelRed]/[DNA] = 1:10, ex 350 nm, em 590 nm
CT-DNA = assay: Circular dichroism spectra of CT-DNA; type: binding, calf; details: [compound]/[DNA] 1:10; 1.5 × 10^−4 M DNA, 1.5 × 10^−5 M compound
Experimental: CD absorption spectra of DNA were measured in TBS at a 100 nm/min scan rate in the wavelength range from 200 to 500 nm, with 1.5 × 10^−4 M DNA in the absence and presence of each compound of 1.5 × 10^−5 M, respectively. The CD signal of TBS was taken as the background and subtracted from the spectra. All the spectroscopic experiments were performed at 25 °C.

HCT-116 cells = assay: Apoptosis and cell cycle analysis by flow cytometry (PI staining); type: cell-based, human; details: HCT-116, 48 h at IC50 concentration
Experimental: Compared to the control (untreated cells), changes in the cell cycle distribution of treated HCT-116 cells were evident.
Figure 6 Inhibition of cell cycle progress in HCT-116 cells treated with compounds 8d, 8f, 8c and 8j for 48 h. Cells were fixed with ethanol and stained with PI. Cell cycle distribution was analyzed by flow cytometry. First peak represents sub-G1 peak, which was taken as the fraction of the apoptotic cell population. TEXT PRINTED IN THE PICTURE: 8d: Diploid: 100.00%; Dip G1: 87.24 % at 74.84; Dip G2: 7.42 % at 147.44; Dip S: 5.34 % | 8f: Diploid: 100.00%; Dip G1: 74.25 % at 73.13; Dip G2: 10.86 % at 144.07; Dip S: 14.89 % | 8c: Diploid: 100.00%; Dip G1: 82.72 % at 72.85; Dip G2: 6.28 % at 143.51; Dip S: 11.00% | 8j: Diploid: 100.00%; Dip G1: 15.12 % at 45.10; Dip G2: 52.47 % at 88.84; Dip S: 32.40%; Apoptosis: 4.01 % Mean: 33.84 | Control (−): Diploid: 100.00%; Dip G1: 35.32 % at 52.60; Dip G2: 19.20 % at 103.62; Dip S: 45.84% DOUBTS OF THE COPYIST ABOUT THIS PICTURE: Print is small throughout, so 3, 5, 6, 8 and 9 cannot be told apart with certainty in the values below; best readings are given. / 8d, Dip G1: 87.24 % at 74.84, the 8s uncertain / 8d, Dip S: 5.34, the 5 and 3 uncertain / 8f, Dip G2: 10.86 % at 144.07, the 8 and 6 uncertain / 8f, Dip S: 14.89, the 8 and 9 uncertain / 8c, Dip G1: 82.72 % at 72.85, the 8s and 5 uncertain / 8c, Dip G2: 6.28 % at 143.51, the 6, 8, 3 and 5 uncertain / 8j, Dip G2: 52.47 % at 88.84, the 5 and 8s uncertain / 8j, Apoptosis: 4.01 % Mean: 33.84, the 3s and 8 uncertain / Control (−), Dip G1: 35.32 % at 52.60, the 3s, 5s and 6 uncertain / Control (−), Dip G2: 19.20 % at 103.62, the 9, 3 and 6 uncertain / Control (−), Dip S: 45.84, the 5 and 8 uncertain / Control (−) is an untreated control, not a compound; it is included because results are printed with it. / G2/G1: 1.97 and %CV, printed in every plot, are left out as fit parameter and statistic.
Apoptosis was quantified by assessing the fraction of cells with sub-G1 DNA content by flow cytometry. The cells lines were treated with indicated concentrations of compounds […]. After incubated for 48 h, cells were washed twice with ice-cold PBS, fixed and permeabilized with ice-cold 70% ethanol at −20 °C overnight. The cells were treated with 100 μg/mL RNase A at 37 °C for 30 min after washed with ice-cold PBS, and finally stained with 1 mg/mL propidium iodide (PI) in the dark at 4 °C for 30 min. Analysis was performed with the system software (Cell Quest; BD Biosciences, Franklin Lakes, NJ, USA).

| SMILES | IC50 [1] | IC50 [2] | Kq (quenching constant of GelRed bound to DNA) (GelRed/CT-DNA) | Negative AI decrease (CD absorption peak of CT-DNA at 247 nm) (CT-DNA) | Positive AI decrease (CD absorption peak of CT-DNA at 281 nm) (CT-DNA) | G1-phase population (HCT-116 cells; untreated cells 35.32%) | IC50 ([1]; Homo sapiens, MGC-803, light or radiation study) | Fold of IC50 against HCT-116 relative to unsubstituted parent compound ([2]; HCT-116, vs 4-MU) | IC50 ([2]; Homo sapiens, HCT-116, light or radiation study) | Cell cycle effect in words (HCT-116 cells) |
| --- | --- | --- | --- | --- | --- | --- | --- | --- | --- | --- |
| CCOP(=O)(OCC)C(NC(=O)CCOc1ccc2c(C)cc(=O)oc2c1)c1cccc(Br)c1 (stereo not shown) [Compound 8f, Diethyl(3-(4-methyl-2-oxo-2H-chromen-7-yloxy)propanamido)(3-bromophenyl)methylphospho-nate] | 74.2 ± 3.36 µM | 25.8 ± 1.21 µM | 1730 M⁻¹ | 26.9% | 23.1% | 74.25% |  |  |  |  |
| CCOP(=O)(OCC)C(C)(NC(=O)CCOc1ccc2c(C)cc(=O)oc2c1)c1ccccc1 (stereo not shown) [Compound 8j, Diethyl 1-(3-(4-methyl-2-oxo-2H-chromen-7-yloxy)propanamido)-1-phenylethylphosphonate] |  |  | 2350 M⁻¹ | 30.4% | 26.82% |  | 14.6 ± 1.11 µM | about 12 fold | 8.68 ± 3.2 µM | accumulation of cells in the G2 phase accompanying reduction in the G1 phase |
